Results from the NIST ThermoML archive (doi:10.1021/je049808f).
± gives the expanded uncertainty stated by the source.

Assays:
[1] = cn = amount concentration of the nth substance listed, in mol/dm3; details: 100 kPa, Liquid
[2] = 298.15 K, Liquid; for viscosity: 100 kPa; for mass density: 101.33 kPa

[I-].[K+] [potassium iodide] + CO
[1]
Details | mass density [kg/m3] | viscosity [mPa·s]
298.15 K, c1 = 0.0906 | 800.8 ± 1.1 | 0.578 ± 0.02
298.15 K, c1 = 0.1458 | 809 ± 1.1 | 0.598 ± 0.021
298.15 K, c1 = 0.1806 | 814.3 ± 1.1 | 0.609 ± 0.021
298.15 K, c1 = 0.2451 | 824.3 ± 1 | 0.628 ± 0.022
298.15 K, c1 = 0.3767 | 845.3 ± 1 | 0.665 ± 0.023
298.15 K, c1 = 0.4151 | 851.6 ± 0.9 | 0.677 ± 0.023
298.15 K, c1 = 0.4787 | 862.2 ± 0.9 | 0.695 ± 0.023
298.15 K, c1 = 0.5381 | 872.4 ± 0.9 | 0.724 ± 0.024
298.15 K, c1 = 0.614 | 885.4 ± 0.8 | 0.737 ± 0.025
298.15 K, c1 = 0.6541 | 892.7 ± 0.8 | 0.75 ± 0.025
303.15 K, c1 = 0.0901 | 796.1 ± 1.2 | 0.539 ± 0.019
303.15 K, c1 = 0.1449 | 804.3 ± 1.1 | 0.558 ± 0.02
303.15 K, c1 = 0.1795 | 809.6 ± 1.1 | 0.568 ± 0.02
303.15 K, c1 = 0.2437 | 819.5 ± 1.1 | 0.587 ± 0.02
303.15 K, c1 = 0.3745 | 840.6 ± 1 | 0.62 ± 0.021
303.15 K, c1 = 0.4127 | 846.8 ± 1 | 0.631 ± 0.022
303.15 K, c1 = 0.476 | 857.5 ± 0.9 | 0.653 ± 0.022
303.15 K, c1 = 0.535 | 867.6 ± 0.9 | 0.664 ± 0.023
303.15 K, c1 = 0.6106 | 880.5 ± 0.8 | 0.685 ± 0.023
303.15 K, c1 = 0.6505 | 887.8 ± 0.8 | 0.697 ± 0.024
308.15 K, c1 = 0.0895 | 791.3 ± 1.2 | 0.504 ± 0.018
308.15 K, c1 = 0.1441 | 799.6 ± 1.1 | 0.522 ± 0.019
308.15 K, c1 = 0.1785 | 804.9 ± 1.1 | 0.532 ± 0.019
308.15 K, c1 = 0.2423 | 814.8 ± 1.1 | 0.548 ± 0.019
308.15 K, c1 = 0.3724 | 835.8 ± 1 | 0.58 ± 0.02
308.15 K, c1 = 0.4104 | 842 ± 1 | 0.59 ± 0.021
308.15 K, c1 = 0.4733 | 852.7 ± 0.9 | 0.615 ± 0.021
308.15 K, c1 = 0.5321 | 862.8 ± 0.9 | 0.623 ± 0.021
308.15 K, c1 = 0.6073 | 875.7 ± 0.8 | 0.639 ± 0.022
308.15 K, c1 = 0.647 | 883 ± 0.8 | 0.651 ± 0.022
313.15 K, c1 = 0.1432 | 794.8 ± 1.2 | 0.489 ± 0.018
313.15 K, c1 = 0.1774 | 800.1 ± 1.1 | 0.498 ± 0.018
313.15 K, c1 = 0.2409 | 810 ± 1.1 | 0.513 ± 0.018
313.15 K, c1 = 0.3704 | 831.1 ± 1 | 0.543 ± 0.019
313.15 K, c1 = 0.4081 | 837.2 ± 1 | 0.552 ± 0.019
313.15 K, c1 = 0.4707 | 847.8 ± 1 | 0.572 ± 0.02
313.15 K, c1 = 0.5291 | 858 ± 0.9 | 0.58 ± 0.02
313.15 K, c1 = 0.604 | 870.8 ± 0.9 | 0.598 ± 0.021
313.15 K, c1 = 0.6435 | 878.1 ± 0.8 | 0.608 ± 0.021

CCO [ethanol]
[2]
Details | mass density [kg/m3] | viscosity [mPa·s]
– | 785.2 ± 1.2 | 1.082 ± 0.034

[I-].[NH4+] [ammonium iodide] + CO
[1]
Details | mass density [kg/m3] | viscosity [mPa·s]
298.15 K, c1 = 0.1696 | 807.2 ± 1.1 | 0.597 ± 0.021
298.15 K, c1 = 0.3281 | 826.3 ± 1 | 0.628 ± 0.022
298.15 K, c1 = 0.4765 | 845.4 ± 1 | 0.674 ± 0.023
298.15 K, c1 = 0.5841 | 859.1 ± 0.9 | 0.692 ± 0.023
298.15 K, c1 = 0.5862 | 859.4 ± 0.9 | 0.688 ± 0.023
298.15 K, c1 = 0.7482 | 881.8 ± 0.8 | 0.737 ± 0.025
298.15 K, c1 = 0.8737 | 899.4 ± 0.8 | 0.771 ± 0.026
298.15 K, c1 = 0.9947 | 916.9 ± 0.7 | 0.802 ± 0.026
298.15 K, c1 = 1.105 | 933.34 ± 0.62 | 0.836 ± 0.027
298.15 K, c1 = 1.209 | 949.2 ± 0.6 | 0.865 ± 0.028
298.15 K, c1 = 1.334 | 968.4 ± 0.5 | 0.903 ± 0.029
298.15 K, c1 = 1.417 | 981.5 ± 0.4 | 0.93 ± 0.03
298.15 K, c1 = 1.507 | 996.2 ± 0.4 | 0.96 ± 0.031
303.15 K, c1 = 0.1686 | 802.6 ± 1.1 | 0.557 ± 0.02
303.15 K, c1 = 0.3262 | 821.6 ± 1.1 | 0.586 ± 0.02
303.15 K, c1 = 0.4739 | 840.8 ± 1 | 0.628 ± 0.022
303.15 K, c1 = 0.581 | 854.5 ± 0.9 | 0.648 ± 0.022
303.15 K, c1 = 0.7443 | 877.2 ± 0.8 | 0.688 ± 0.023
303.15 K, c1 = 0.8692 | 894.8 ± 0.8 | 0.719 ± 0.024
303.15 K, c1 = 0.9897 | 912.3 ± 0.7 | 0.749 ± 0.025
303.15 K, c1 = 1.099 | 928.8 ± 0.6 | 0.781 ± 0.026
303.15 K, c1 = 1.203 | 944.6 ± 0.6 | 0.809 ± 0.027
303.15 K, c1 = 1.327 | 963.8 ± 0.5 | 0.847 ± 0.028
303.15 K, c1 = 1.41 | 976.9 ± 0.5 | 0.868 ± 0.028
303.15 K, c1 = 1.5 | 991.6 ± 0.4 | 0.898 ± 0.029
308.15 K, c1 = 0.1676 | 797.9 ± 1.1 | 0.522 ± 0.019
308.15 K, c1 = 0.3018 | 813.9 ± 1.1 | 0.54 ± 0.019
308.15 K, c1 = 0.4712 | 836.1 ± 1 | 0.587 ± 0.02
308.15 K, c1 = 0.5799 | 850.1 ± 0.9 | 0.6 ± 0.021
308.15 K, c1 = 0.7404 | 872.6 ± 0.9 | 0.644 ± 0.022
308.15 K, c1 = 0.8647 | 890.2 ± 0.8 | 0.682 ± 0.023
308.15 K, c1 = 0.9847 | 907.6 ± 0.7 | 0.701 ± 0.024
308.15 K, c1 = 1.094 | 924.3 ± 0.7 | 0.729 ± 0.024
308.15 K, c1 = 1.197 | 940 ± 0.6 | 0.756 ± 0.025
308.15 K, c1 = 1.321 | 959.2 ± 0.5 | 0.789 ± 0.026
308.15 K, c1 = 1.403 | 972.3 ± 0.5 | 0.813 ± 0.027
308.15 K, c1 = 1.493 | 987 ± 0.4 | 0.84 ± 0.028
313.15 K, c1 = 0.1667 | 793.1 ± 1.2 | 0.49 ± 0.018
313.15 K, c1 = 0.3001 | 809.2 ± 1.1 | 0.506 ± 0.018
313.15 K, c1 = 0.4686 | 831.4 ± 1 | 0.551 ± 0.019
313.15 K, c1 = 0.5767 | 845.4 ± 1 | 0.563 ± 0.02
313.15 K, c1 = 0.7364 | 867.9 ± 0.9 | 0.604 ± 0.021
313.15 K, c1 = 0.8602 | 885.5 ± 0.8 | 0.631 ± 0.022
313.15 K, c1 = 0.9797 | 903 ± 0.7 | 0.658 ± 0.022
313.15 K, c1 = 1.089 | 920 ± 0.7 | 0.685 ± 0.023
313.15 K, c1 = 1.191 | 935.4 ± 0.6 | 0.71 ± 0.024
313.15 K, c1 = 1.315 | 954.6 ± 0.7 | 0.741 ± 0.025
313.15 K, c1 = 1.397 | 967.7 ± 0.6 | 0.763 ± 0.025
313.15 K, c1 = 1.486 | 982.4 ± 0.4 | 0.788 ± 0.026

CO [methanol]
[2]
Details | mass density [kg/m3] | viscosity [mPa·s]
– | 786.2 ± 1.2 | 0.545 ± 0.019

[I-].[NH4+] [ammonium iodide] + CCO
[1]
Details | mass density [kg/m3] | viscosity [mPa·s]
298.15 K, c1 = 0.1638 | 804.1 ± 1.1 | 1.229 ± 0.038
298.15 K, c1 = 0.2289 | 811.7 ± 1.1 | 1.275 ± 0.04
298.15 K, c1 = 0.3302 | 823.9 ± 1 | 1.35 ± 0.042
298.15 K, c1 = 0.4015 | 832.7 ± 1 | 1.414 ± 0.044
298.15 K, c1 = 0.4696 | 841.1 ± 1 | 1.495 ± 0.046
298.15 K, c1 = 0.6094 | 859.4 ± 0.9 | 1.557 ± 0.048
298.15 K, c1 = 0.6694 | 867 ± 0.9 | 1.598 ± 0.049
298.15 K, c1 = 0.7343 | 875.8 ± 0.8 | 1.663 ± 0.051
298.15 K, c1 = 0.8676 | 894.5 ± 0.8 | 1.77 ± 0.053
298.15 K, c1 = 0.972 | 908.9 ± 0.7 | 1.839 ± 0.055
303.15 K, c1 = 0.1629 | 799.8 ± 1.1 | 1.12 ± 0.035
303.15 K, c1 = 0.2276 | 807.4 ± 1.1 | 1.161 ± 0.037
303.15 K, c1 = 0.3285 | 819.6 ± 1.1 | 1.225 ± 0.038
303.15 K, c1 = 0.3994 | 828.4 ± 1 | 1.284 ± 0.04
303.15 K, c1 = 0.4673 | 836.9 ± 1 | 1.359 ± 0.042
303.15 K, c1 = 0.6064 | 855.1 ± 0.9 | 1.413 ± 0.044
303.15 K, c1 = 0.6661 | 862.7 ± 0.9 | 1.454 ± 0.045
303.15 K, c1 = 0.7307 | 871.6 ± 0.9 | 1.499 ± 0.046
303.15 K, c1 = 0.8635 | 890.2 ± 0.8 | 1.599 ± 0.049
303.15 K, c1 = 0.9674 | 904.7 ± 0.7 | 1.674 ± 0.051
308.15 K, c1 = 0.162 | 795.5 ± 1.2 | 1.048 ± 0.033
308.15 K, c1 = 0.2264 | 803.1 ± 1.1 | 1.059 ± 0.034
308.15 K, c1 = 0.3268 | 815.3 ± 1.1 | 1.117 ± 0.035
308.15 K, c1 = 0.3974 | 824.1 ± 1 | 1.165 ± 0.037
308.15 K, c1 = 0.4658 | 834.2 ± 3 | 1.241 ± 0.039
308.15 K, c1 = 0.6033 | 850.8 ± 0.9 | 1.287 ± 0.04
308.15 K, c1 = 0.6628 | 858.4 ± 0.9 | 1.327 ± 0.041
308.15 K, c1 = 0.7271 | 867.3 ± 0.9 | 1.365 ± 0.042
308.15 K, c1 = 0.8593 | 885.9 ± 0.8 | 1.459 ± 0.045
308.15 K, c1 = 0.9628 | 900.4 ± 0.7 | 1.544 ± 0.047
313.15 K, c1 = 0.1611 | 791.1 ± 1.2 | 0.935 ± 0.03
313.15 K, c1 = 0.2252 | 798.8 ± 1.1 | 0.968 ± 0.031
313.15 K, c1 = 0.3251 | 811 ± 1.1 | 1.02 ± 0.033
313.15 K, c1 = 0.3952 | 819.7 ± 1.1 | 1.062 ± 0.034
313.15 K, c1 = 0.4634 | 829.3 ± 1 | 1.1 ± 0.035
313.15 K, c1 = 0.6003 | 846.5 ± 1 | 1.175 ± 0.037
313.15 K, c1 = 0.6595 | 854.1 ± 0.9 | 1.226 ± 0.038
313.15 K, c1 = 0.7235 | 863 ± 0.9 | 1.246 ± 0.039
313.15 K, c1 = 0.8551 | 881.6 ± 0.8 | 1.324 ± 0.041
313.15 K, c1 = 0.9582 | 896.1 ± 0.8 | 1.388 ± 0.043
